Experimental findings from patent publication US7375232B2, “Ortho-heterocyclic substituted aryl amides for controlling invertebrate pests” (E.I. du Pont de Nemours and Company, priority 2001, dated 2008) are described below.

By melting point is commonly meant the temperature of the solid-liquid transition.

Consider `Cc1cc(Cl)cc(-n2cccn2)c1NC(=O)c1cc(C(F)(F)F)nn1-c1ccccc1Cl` [Compound 16], for which the melting point lay in the range of 87 to 89 °C.
